Results reported in patent US20220306695A1, “COMPSTATIN ANALOGUES AND THEIR MEDICAL USES” (priority 2019, published 2022).
Read-outs that look alike come from different tables or passages of the source. Positions of bridges follow the written chain, without caps; N, C: chain ends. Non-standard residues stand in square brackets, D forms with d. Residues, ends and D or L forms follow the SMILES beside them. *: point of attachment. Trp(1-Me) = Cn1cc(C[C@H](N)C(=O)O)c2ccccc21; C18 diacid = O=C(O)CCCCCCCCCCCCCCCCC(=O)*; 2Nal = N[C@@H](Cc1ccc2ccccc2c1)C(=O)O; Sar = CNCC(=O)O

How the values were obtained:
[1] = tested on: classical complement pathway; assay: In vitro haemolysis assay (inhibition of classical complement pathway); format: cell-based, human
How it was run: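 Serially diluted compound (9 points) was preincubated 15 min at room temperature with diluted human serum, titrated per batch to give 70-90% maximal haemolysis, in Tris/casein buffer pH 7.4 with Mg2+/Ca2+. Antibody-sensitized sheep erythrocytes were then added for 30 min at 37° C, and the reaction was stopped with EDTA. Haemolysis was read at A405, with IC50 from 4PL fit.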

[2] = Solubility test at 10 mg/mL (visual inspection and light scattering); format: physicochemical; settings: for Solubility, Condition 1 Acetate pH 4: 10 mg/mL compound in 100 mM acetate pH 4; for Solubility, Condition 2 Acetate pH 5: 10 mg/mL compound in 100 mM acetate pH 5; for Solubility, Condition 3 Phosphate pH 6: 10 mg/mL compound in 100 mM phosphate pH 6; for Solubility, Condition 4 Phosphate pH 7: 10 mg/mL compound in 100 mM phosphate pH 7; for Solubility, Condition 5 Phosphate pH 7.5: 10 mg/mL compound in 100 mM phosphate pH 7.5
[3] = Table 3, human serum, sensitized sheep red blood cells, read-out: IC50[nM], in vitro analysis of inhibition of hemolysis

Structure (SMILES)	IC50 [1, 3]	Solubility, Condition 1 Acetate pH 4 [2]	Solubility, Condition 2 Acetate pH 5 [2]	Solubility, Condition 3 Phosphate pH 6 [2]	Solubility, Condition 4 Phosphate pH 7 [2]	Solubility, Condition 5 Phosphate pH 7.5 [2]	IC50 ([1]; Table 4, valine 3 versus isoleucine 3 pairs, read-out: CP hemolysis IC50)
CC[C@H](C)[C@@H]1NC(=O)[C@@H](NC(=O)[C@H](Cc2ccc(O)cc2)NC(C)=O)CSSC[C@@H](C(=O)N[C@H](C(=O)NCC(=O)N[C@@H](C)C(=O)N[C@@H](CCC(=O)O)C(=O)N[C@@H](CO)C(N)=O)[C@@H](C)O)NC(=O)[C@H](CCCNC(=N)N)NC(=O)[C@H](Cc2c[nH]cn2)NC(=O)[C@H](CCC(=O)O)NC(=O)CNC(=O)[C@H](Cc2c[nH]c3ccccc23)NC(=O)[C@H](CC(=O)O)NC(=O)[C@H](CCC(N)=O)NC(=O)[C@H](Cc2c[nH]c3ccccc23)NC1=O [Compound 66] (Ac-YCIWQDWGEHRCTGAES-NH2; disulfide 2-12)	< 100 nM	− (denotes lack of solubility at the given condition, as UV absorbance at 340 nm exceeds 0.1 AU and/or it is visibly turbid or contains particles.)	− (denotes lack of solubility at the given condition, as UV absorbance at 340 nm exceeds 0.1 AU and/or it is visibly turbid or contains particles.)	+ (denotes solubility at the given condition, as determined by UV absorbance being less than 0.1 AU at 340 nm and the sample being clear when manually inspected.)	+ (denotes solubility at the given condition, as determined by UV absorbance being less than 0.1 AU at 340 nm and the sample being clear when manually inspected.)	+ (denotes solubility at the given condition, as determined by UV absorbance being less than 0.1 AU at 340 nm and the sample being clear when manually inspected.)	
CC[C@H](C)[C@H](NC(=O)[C@H](C)NC(=O)[C@H](CO)NC(=O)CNC(=O)[C@H](CCC(=O)O)NC(C)=O)C(=O)N[C@H]1CSSC[C@@H](C(=O)N(C)CC(=O)N[C@@H](CCC(=O)O)C(N)=O)NC(=O)[C@H](CCCNC(=N)N)NC(=O)[C@H](Cc2c[nH]cn2)NC(=O)[C@H](CCC(=O)O)NC(=O)CNC(=O)[C@H](Cc2c[nH]c3ccccc23)NC(=O)[C@H](CC(=O)O)NC(=O)[C@H](CCC(N)=O)NC(=O)[C@H](Cc2ccc3ccccc3c2)NC(=O)[C@H]([C@@H](C)CC)NC1=O [Compound 50] (Ac-EGSAICI[2Nal]QDWGEHRC[Sar]E-NH2; disulfide 6-16)	< 100 nM	− (denotes lack of solubility at the given condition, as UV absorbance at 340 nm exceeds 0.1 AU and/or it is visibly turbid or contains particles.)	− (denotes lack of solubility at the given condition, as UV absorbance at 340 nm exceeds 0.1 AU and/or it is visibly turbid or contains particles.)	+ (denotes solubility at the given condition, as determined by UV absorbance being less than 0.1 AU at 340 nm and the sample being clear when manually inspected.)	+ (denotes solubility at the given condition, as determined by UV absorbance being less than 0.1 AU at 340 nm and the sample being clear when manually inspected.)	+ (denotes solubility at the given condition, as determined by UV absorbance being less than 0.1 AU at 340 nm and the sample being clear when manually inspected.)	
CC[C@H](C)[C@H](NC(C)=O)C(=O)N[C@H]1CSSC[C@@H](C(=O)N[C@@H](CCC(=O)O)C(=O)NCC(=O)N[C@@H](CCC(=O)O)C(N)=O)NC(=O)[C@H](CCCNC(=N)N)NC(=O)[C@H](Cc2c[nH]cn2)NC(=O)[C@H](CCC(=O)O)NC(=O)CNC(=O)[C@H](Cc2c[nH]c3ccccc23)NC(=O)[C@H](CC(=O)O)NC(=O)[C@H](CCC(N)=O)NC(=O)[C@H](Cc2c[nH]c3ccccc23)NC(=O)[C@H]([C@@H](C)CC)NC1=O [Compound 27] (Ac-ICIWQDWGEHRCEGE-NH2; disulfide 2-12)	< 100 nM	− (denotes lack of solubility at the given condition, as UV absorbance at 340 nm exceeds 0.1 AU and/or it is visibly turbid or contains particles.)	− (denotes lack of solubility at the given condition, as UV absorbance at 340 nm exceeds 0.1 AU and/or it is visibly turbid or contains particles.)	− (denotes lack of solubility at the given condition, as UV absorbance at 340 nm exceeds 0.1 AU and/or it is visibly turbid or contains particles.)	+ (denotes solubility at the given condition, as determined by UV absorbance being less than 0.1 AU at 340 nm and the sample being clear when manually inspected.)	+ (denotes solubility at the given condition, as determined by UV absorbance being less than 0.1 AU at 340 nm and the sample being clear when manually inspected.)	
CC[C@H](C)[C@@H]1NC(=O)[C@@H](NC(=O)[C@H](Cc2ccccc2)NC(=O)[C@H](CCC(=O)O)NC(=O)[C@H](CO)NC(C)=O)CSSC[C@@H](C(=O)N(C)CC(=O)N[C@@H](CCC(=O)O)C(N)=O)NC(=O)[C@H](CCCNC(=N)N)NC(=O)[C@H](Cc2c[nH]cn2)NC(=O)[C@H](CCC(=O)O)NC(=O)CN(C)C(=O)[C@H](Cc2c[nH]c3ccccc23)NC(=O)[C@H](CC(=O)O)NC(=O)[C@H](CCC(N)=O)NC(=O)[C@H](Cc2cn(C)c3ccccc23)NC1=O [Compound 79, Ac-SEFC(1)I[1-Me-Trp]QDW[Sar]EHRC(1)[Sar]E-NH2] (Ac-SEFCI[Trp(1-Me)]QDW[Sar]EHRC[Sar]E-NH2; disulfide 4-14)	< 100 nM	− (denotes lack of solubility at the given condition, as UV absorbance at 340 nm exceeds 0.1 AU and/or it is visibly turbid or contains particles.)	− (denotes lack of solubility at the given condition, as UV absorbance at 340 nm exceeds 0.1 AU and/or it is visibly turbid or contains particles.)	+ (denotes solubility at the given condition, as determined by UV absorbance being less than 0.1 AU at 340 nm and the sample being clear when manually inspected.)	+ (denotes solubility at the given condition, as determined by UV absorbance being less than 0.1 AU at 340 nm and the sample being clear when manually inspected.)	+ (denotes solubility at the given condition, as determined by UV absorbance being less than 0.1 AU at 340 nm and the sample being clear when manually inspected.)	
CC[C@H](C)[C@@H]1NC(=O)[C@@H](NC(=O)[C@H](Cc2ccc(O)cc2)NC(=O)[C@H](CCC(=O)O)NC(=O)[C@H](CO)NC(=O)CNC(=O)[C@H](CCC(=O)O)NC(=O)CCCCCCCCCCCCCCCCC(=O)O)CSSC[C@@H](C(=O)N(C)CC(=O)N[C@@H](CCC(=O)O)C(N)=O)NC(=O)[C@H](CCCNC(=N)N)NC(=O)[C@H](Cc2c[nH]cn2)NC(=O)[C@H](CCC(=O)O)NC(=O)CNC(=O)[C@H](Cc2c[nH]c3ccccc23)NC(=O)[C@H](CC(=O)O)NC(=O)[C@H](CCC(N)=O)NC(=O)[C@H](Cc2cn(C)c3ccccc23)NC1=O [Compound 108] ({C18 diacid}-EGSEYCI[Trp(1-Me)]QDWGEHRC[Sar]E-NH2; disulfide 6-16)	< 500 nM	− (denotes lack of solubility at the given condition, as UV absorbance at 340 nm exceeds 0.1 AU and/or it is visibly turbid or contains particles.)	− (denotes lack of solubility at the given condition, as UV absorbance at 340 nm exceeds 0.1 AU and/or it is visibly turbid or contains particles.)	+ (denotes solubility at the given condition, as determined by UV absorbance being less than 0.1 AU at 340 nm and the sample being clear when manually inspected.)	+ (denotes solubility at the given condition, as determined by UV absorbance being less than 0.1 AU at 340 nm and the sample being clear when manually inspected.)	+ (denotes solubility at the given condition, as determined by UV absorbance being less than 0.1 AU at 340 nm and the sample being clear when manually inspected.)	
CC[C@H](C)[C@H](NC(=O)[C@H](C)NC(=O)[C@H](CO)NC(=O)[C@H](CO)NC(=O)[C@H](CCC(=O)O)NC(C)=O)C(=O)N[C@H]1CSSC[C@@H](C(=O)N[C@H](C(N)=O)[C@@H](C)O)NC(=O)[C@H](CCCNC(=N)N)NC(=O)[C@H](Cc2c[nH]cn2)NC(=O)[C@H](CCC(=O)O)NC(=O)CNC(=O)[C@H](Cc2c[nH]c3ccccc23)NC(=O)[C@H](CC(=O)O)NC(=O)[C@H](CCC(N)=O)NC(=O)[C@H](Cc2c[nH]c3ccccc23)NC(=O)[C@H]([C@@H](C)CC)NC1=O [Compound 3] (Ac-ESSAICIWQDWGEHRCT-NH2; disulfide 6-16)	< 100 nM	+ (denotes solubility at the given condition, as determined by UV absorbance being less than 0.1 AU at 340 nm and the sample being clear when manually inspected.)	− (denotes lack of solubility at the given condition, as UV absorbance at 340 nm exceeds 0.1 AU and/or it is visibly turbid or contains particles.)	− (denotes lack of solubility at the given condition, as UV absorbance at 340 nm exceeds 0.1 AU and/or it is visibly turbid or contains particles.)	+ (denotes solubility at the given condition, as determined by UV absorbance being less than 0.1 AU at 340 nm and the sample being clear when manually inspected.)	+ (denotes solubility at the given condition, as determined by UV absorbance being less than 0.1 AU at 340 nm and the sample being clear when manually inspected.)	69 nM
